Data published in patent US11485762B2, “Compositions and methods for inhibition of L-plastin activity in osteoclasts to reduce bone loss” (University of Maryland, Baltimore, priority 2017, dated 2022).

Tests used:
Format in all cases: cell-based, mouse
[1] = system: osteoclasts; assay: Resorption pit formation assay on dentine slices; settings: for resorption of dentine matrix: sNT-LPL peptides, 12-16 hours
Method: Osteoclasts transduced with TAT-LPL peptides of interest for 30 minutes, were re-plated on dentine slices for 10-12 hours in the presence of TAT-fused peptides of interest and TNF-α. Some cultures were treated with a neutralizing antibody to TNFR-1. Resorption assay was performed as described previously (Chellaiah et al., 2000, J. Cell Biol., 148: 665-678; Chellaiah at al., 2000, J. Biol. Chem., 275: 11993-12002). Resorbed area were also scanned in confocal microscopy. Images were stored in TIF format and processed by Adobe Photoshop (Adobe Systems Inc.) (Chellaiah et al., 2000, J. Cell Biol, 148: 665-678). The resorbed pit areas were quantified and data were compiled from four slices per treatment and per experiment. The resorbed pit areas (20-25 pits/slice) were quantified and data were compiled from four slices per treatment. […] The area of the pit was determined from the free-hand traced perimeter using the LSM software (Chellaiah et al., 2000, J. Cell Biol., 148: 665-678). As per Cosmo Bio recommendations, the results of one experiment was compiled for the presentation.
Resorption was evaluated using dentine slices as described previously (Chellaiah et al., 2000, J. Biol. Chem., 275: 11993-12002). After transduction for 30 minutes, osteoclasts were re-plated on dentine slices for 12-16 hours to detect resorption lacuna in the presence of respective LPL peptide and TNF-α. Each treatment was done in quadruplicates Subsequently, dentine slices were stained with Mayer's acid hematoxylin (Sigma) for 6 minutes followed by washing several times with water. Excess stain in the resorbed area and stained cell debris were removed with a cotton swab. The pits were imaged under an X40 objective in a Zeiss inverted phase contrast microscope fitted with a CCD camera (Chellaiah et al., 2003, J Biol Chem 278: 29086-29097; Chellaiah et al., 2003, Mol Biol Cell, 14: 173-189). Images were stored in TIF format and processed by Adobe Photoshop (Adobe Systems Inc.).

[2] = system: osteoclasts; assay: Formation of nascent sealing zones (NSZs) in osteoclasts plated on dentine slices (actin staining); settings: for formation of NSZs: sNT-LPL peptides, dentine; for formation of NSZs, time course: 3, 6 and 10 hours, LPL and integrin αv immunostaining; for number of NSZs: dentine slices 2-3 hours, versus basal level
Method: (§1) The vector pTAT-HA has an N-terminal 6-histidine leader (Nagahara et al., 1998, Nature Medicine, 4:1449-1452). […] For transduction with TAT-fused peptides (100-150 nM), osteoclasts were first kept in serum-free α-MEM for two hours. Afterward, TAT proteins of interest, bone particles, and TNF-α were added to cells in serum-free α-MEM Lysates were made from these cells for immunoprecipitation and immunoblotting analyses. Osteoclasts plated on dentine slices in the presence of TAT-proteins of interest and TNF-α for 3-6 hours or 12-14 hours were used for immunostaining or actin staining analyses. Osteoclast cultures treated only with TNF-α were used as controls.
(§2) Osteoclast precursors (10^5 cells/coverslips) were cultured on glass cover slips or dentine slices. Fluorescent labeling was done in osteoclasts transduced or untransduced with TAT-proteins. HA or TAT antibody was used to identify the transduced peptides of interest; rhodamine phalloidin was used to determine actin organization (Chellaiah et al., 2000, J. Cell Biol., 148: 665-678; Chellaiah et al., 2000, J. Biol. Chem., 275: 11993-12002). Immunostained and actin stained osteoclasts were photographed with a Bio-Rad confocal laser-scanning microscope. Images were stored in TIF image format and processed by Adobe Photoshop (Adobe Systems Inc., Mountain View. Calif.).
After cells were kept in the serum-free α-MEM medium for two hours, LPL peptides of interest were added to a final concentration of 100-150 nM to cells in serum-free media (Chellaiah et al, 2000, J. Biol. Chem., 275: 11993-12002). Osteoclasts transduced with peptides of interest and added with bone particles in the presence of TNF-α for 3-4 hours or 12-14 hours were used for lysate preparations. Cells plated on coverslips and treated with peptides were used for actin staining to detect podosomes. […] These cells were used for Actin staining with rhodamine-phalloidin or immunostaining analyses (Chellaiah et al., 2000, J. Biol. Chem., 275: 11993-12002; Chellaiah et al., 2000, J. Cell. Biol., 148: 665-678; Chellaiah et al., 2003, J Biol Chem 278: 29086-29097).
Osteoclasts were fixed with 3% paraformaldehyde for 20 minutes and permeabilized with 0.1% Triton X-100 in PBS for 5 minutes. Subsequently, osteoclasts were stained with a primary (HA or integrin αv) and secondary antibody as described (Chellaiah et al., 2003, J Biol Chem 278: 29086-29097). Actin staining was done with rhodamine-phalloidin as described (Chellaiah et al., 2000, J. Biol. Chem., 275: 11993-12002; Chellaiah et al., 2000, J. Cell Biol., 148: 665-678). Cells were washed and mounted on a slide in a mounting solution (Vector Laboratories) and sealed with nail polish. Immunostained osteoclasts were photographed with a Bio-Rad and Nikon confocal microscope. Images were stored in TIF image format and processed by Adobe Photoshop (Adobe Systems Inc., Mountain View, Calif.).

[3] = system: osteoclasts; assay: Sealing ring formation in osteoclasts plated on dentine; settings: for formation of mature sealing rings: sNT-LPL peptides, time course to 10 hours; for number of sealing rings: dentine 10-12 hours, TNF-α
Method: as §1, §2
After cells were kept in the serum-free α-MEM medium for two hours, LPL peptides of interest were added to a final concentration of 100-150 nM to cells in serum-free media (Chellaiah et al, 2000, J. Biol. Chem., 275: 11993-12002). Osteoclasts transduced with peptides of interest and added with bone particles in the presence of TNF-α for 3-4 hours or 12-14 hours were used for lysate preparations. Cells plated on coverslips and treated with peptides were used for actin staining to detect podosomes. After transduction for 30 min., osteoclasts were re-plated on dentine slices with respective LPL peptide and TNF-α for 3-6 hours or 12-14 hours. These cells were used for Actin staining with rhodamine-phalloidin or immunostaining analyses (Chellaiah et al., 2000, J. Biol. Chem., 275: 11993-12002; Chellaiah et al., 2000, J. Cell. Biol., 148: 665-678; Chellaiah et al., 2003, J Biol Chem 278: 29086-29097).
Osteoclasts were fixed with 3% paraformaldehyde for 20 minutes and permeabilized with 0.1% Triton X-100 in PBS for 5 minutes. Subsequently, osteoclasts were stained with a primary (HA or integrin αv) and secondary antibody as described (Chellaiah et al., 2003, J Biol Chem 278: 29086-29097). Actin staining was done with rhodamine-phalloidin as described (Chellaiah et al., 2000, J. Biol. Chem., 275: 11993-12002; Chellaiah et al., 2000, J. Cell Biol., 148: 665-678). […]

| Molecule | resorption of dentine matrix [1] | formation of NSZs [2] | formation of NSZs, time course [2] | formation of mature sealing rings [3] | resorption (resorption pits) ([1]; dentine 10-12 hours, TNF-α) | number of NSZs ([2]; TNF-α) | number of sealing rings [3] | number of sealing rings ([3]; listed as PL-LPL) | formation of NSZs, lower magnification (FIG. 7) ([2]; dentine slices 3-4 hours, TNF-α) |
| --- | --- | --- | --- | --- | --- | --- | --- | --- | --- |
| MARGAVADEE [Peptide P2, TAT-fused sNT-LPL peptide, Ser-5 and Ser-7 substituted to Alanine (A5A7)] | no inhibitory effect | no inhibitory effect |  |  |  |  |  |  |  |
| MARGSVSDEE [Peptide P1, TAT-fused small molecular weight (10aa) amino-terminal LPL peptide, unsubstituted (S5S7)] | Reduced resorption of dentine | considerable decrease | attenuates | abrogated |  |  |  |  |  |
| SRSGMVEEAD [Peptide P5, TAT-fused scrambled sNT-LPL peptide, control, reference compound] | no inhibitory effect | no inhibitory effect | time-dependent organization | time-dependent organization |  |  |  |  |  |
| FL-LPL: HA-TAT fused full-length L-plastin protein (70-75 kDa), purified from bacterial expression vector pTAT-HA (protein, UniProt P13796 1-627, looked up, full-length HA-TAT tag, HA-TAT fused full-length L-plastin protein (70-75 kDa), purified from bacterial expression vector pTAT-HA) MARGSVSDEEMMELREAFAKVDTDGNGYISFNELNDLFKAACLPLPGYRVREITENLMATGDLDQDGRISFDEFIKIFHGLKSTDVAKTFRKAINKKEGICAIGGTSEQSSVGTQHSYSEEEKYAFVNWINKALENDPDCRHVIPMNPNTNDLFNAVGDGIVLCKMINLSVPDTIDERTINKKKLTPFTIQENLNLALNSASAIGCHVVNIGAEDLKEGKPYLVLGLLWQVIKIGLFADIELSRNEALIALLREGESLEDLMKLSPEELLLRWANYHLENAGCNKIGNFSTDIKDSKAYYHLLEQVAPKGDEEGVPAVVIDMSGLREKDDIQRAECMLQQAERLGCRQFVTATDVVRGNPKLNLAFIANLFNRYPALHKPENQDIDWGALEGETREERTFRNWMNSLGVNPRVNHLYSDLSDALVIFQLYEKIKVPVDWNRVNKPPYPKLGGNMKKLENCNYAVELGKNQAKFSLVGIGGQDLNEGNRTLTLALIWQLMRRYTLNILEEIGGGQKVNDDIIVNWVNETLREAKKSSSISSFKDPKISTSLPVLDLIDAIQPGSINYDLLKTENLNDDEKLNNAKYAISMARKIGARVYALPEDLVEVNPKMVMTVFACLMGKGMKRV |  |  |  |  | increase in the number and size (area) of resorption pits | substantial increase above the basal level | Multiple sealing rings | increased |  |
| mutated FL-LPL: TAT-fused full-length L-plastin with Ser-5 and Ser-7 mutated to Ala-5 and Ala-7 (protein, UniProt P13796 1-627, looked up, variant S5A S7A, full-length HA-TAT tag) MARGAVADEEMMELREAFAKVDTDGNGYISFNELNDLFKAACLPLPGYRVREITENLMATGDLDQDGRISFDEFIKIFHGLKSTDVAKTFRKAINKKEGICAIGGTSEQSSVGTQHSYSEEEKYAFVNWINKALENDPDCRHVIPMNPNTNDLFNAVGDGIVLCKMINLSVPDTIDERTINKKKLTPFTIQENLNLALNSASAIGCHVVNIGAEDLKEGKPYLVLGLLWQVIKIGLFADIELSRNEALIALLREGESLEDLMKLSPEELLLRWANYHLENAGCNKIGNFSTDIKDSKAYYHLLEQVAPKGDEEGVPAVVIDMSGLREKDDIQRAECMLQQAERLGCRQFVTATDVVRGNPKLNLAFIANLFNRYPALHKPENQDIDWGALEGETREERTFRNWMNSLGVNPRVNHLYSDLSDALVIFQLYEKIKVPVDWNRVNKPPYPKLGGNMKKLENCNYAVELGKNQAKFSLVGIGGQDLNEGNRTLTLALIWQLMRRYTLNILEEIGGGQKVNDDIIVNWVNETLREAKKSSSISSFKDPKISTSLPVLDLIDAIQPGSINYDLLKTENLNDDEKLNNAKYAISMARKIGARVYALPEDLVEVNPKMVMTVFACLMGKGMKRV |  |  |  |  |  | more or less equal |  |  | did not affect |
